One block for each compound: values may come before it.
Assays:
[1] = system: Kasumi-1; assay: Anti-cancer action: number of viable cells (ATPlite) after 96 hours of culture; assay type: cell-based; settings: Kasumi-1 human acute myeloid leukemia cell line
[2] = system: HL60; assay: as above; assay type: cell-based; settings: HL60 human acute myeloid leukemia cell line
[3] = system: Mec-1; assay: as above; assay type: cell-based; settings: Mec-1 human chronic lymphocytic leukemia cell line
Procedure: (§1) Specifically, OHBFB was added to a medium of various cancer cell lines and the number of viable cells was measured. For comparison, the anti-cancer action of epigallocatechin gallate (hereinafter sometimes referred to as “EGCG”) was also studied similarly.
(§2) Examples of the cancer cell lines include U266 which is a human multiple myeloma cell line, ARH77 which is a human multiple myeloma cell line, RPMI8226 which is a human multiple myeloma cell line, Mec-1 which is a human chronic lymphocytic leukemia cell line, HL60 which is a human acute myeloid leukemia cell line, Kasumi-1 which is a human acute myeloid leukemia cell line, and KU812 which is human chronic myeloid leukemia cell line were used.
(§3) As each of the cancer cell lines, a cell line obtained by subculturing the cells under the conditions of 37° C. and 5% CO2 saturated with water vapor using an RPMI 1640 medium supplemented with a 10% fetal calf serum (FCS), and culturing and maintaining the cells in a logarithmic growth phase.
(§4) EGCG (manufactured by Sigma-Aldrich) was dissolved in ultrapure water to 5 mM, stored at −30° C., and appropriately thawed before use. OHBFB (manufactured by Nagara Bioscience) was dissolved in ultrapure water to 5 mM, stored at −30° C., and appropriately thawed before use.
(§5) Each of the cancer cell lines was suspended in an RPMI 1640 medium supplemented with a 1% FCS, superoxide dismutase (SOD) (5 U/mL), and a catalase (200 U/mL) to 5×10^4 cells/mL, the suspension was seeded at 100 μL/well in a 96-well plate, OHBFB or EGCG at a final concentration of 0, 5, 10, or 25 μM was added thereto, and the cells were cultured for 96 hours. Thereafter, the number of viable cells was measured using a commercially available kit (trade name “ATPlite,” PerkinElmer).

[4] = system: ARH77; assay: as above; assay type: cell-based; settings: ARH77 human multiple myeloma cell line
Procedure: as §1, §2, §3, §4, §5

[5] = system: U266; assay: as above; assay type: cell-based; settings: U266 human multiple myeloma cell line
Procedure: as §1, §2, §3, §4, §5

[6] = system: RPMI8226; assay: as above; assay type: cell-based; settings: RPMI8226 human multiple myeloma cell line
Procedure: as §1, §2, §3, §4, §5

[7] = system: KU812; assay: as above; assay type: cell-based; settings: KU812 human chronic myeloid leukemia cell line
Procedure: as §1, §2, §3, §4, §5

[8] = system: U266; assay: Anti-cancer activity enhancing action by eriodictyol (ATPlite cell viability, isobologram analysis); assay type: cell-based, human
[9] = system: U266; assay: Anti-cancer activity enhancing action by flavanone (ATPlite cell viability); assay type: cell-based, human; settings: U266, flavanone 5 μM with OHBFB 2.5 μM, 96 hours
Procedure: Specifically, U266 which is a human multiple myeloma cell line was suspended in an RPMI 1640 medium supplemented with 1% FCS, SOD (5 U/mL), and a catalase (200 U/mL) to 5×10^4 cells/mL, and the suspension was seeded at 100 μL per well in a 96-well plate. […] As a control, a sample to which the same volume of PBS had been added instead of flavanone was used. As the flavanone, eriodictyol (manufactured by Extrasynthese Corp.), naringenin (manufactured by Tokyo Chemical Industry Co., Ltd.), and hesperetin (manufactured by Wako Pure Chemical Industries, Ltd.) were used. Subsequently, the cell viability was measured using a commercially available kit (trade name “ATPlite,” PerkinElmer).

[10] = system: U266; assay: Anti-cancer activity enhancing action by PDE5 inhibitor vardenafil (ATPlite cell viability, isobologram analysis); assay type: cell-based; settings: Homo sapiens, U-266, 96 h, read-out: IC50 of vardenafil alone

IC50 [1]: 9.6 µM
IC50 [2]: 9.5 µM
IC50 [3]: 8.3 µM
IC50 [4]: 4 µM
IC50 [5]: 11.8 µM
IC50 [6]: 11.1 µM
IC50 [7]: 6.2 µM
SMILES: O=C(O[C@@H]1Cc2c(O)cc(O)cc2O[C@@H]1c1cc(O)c(O)c(O)c1)c1cc(O)c(O)c(O)c1 [EGCG, epigallocatechin gallate]

SMILES: O=C1C[C@@H](c2ccc(O)c(O)c2)Oc2cc(O)cc(O)c21 [eriodictyol]
IC50 ([8]; Homo sapiens, U-266, 96 h, read-out: IC50 of eriodictyol alone): 89.4 µM
combined use of OHBFB and eriodictyol (isobologram analysis) ([8]; U266, isobologram): synergistically enhances the anti-cancer activity of OHBFB
cell viability: enhancement of OHBFB anti-cancer activity by flavanone [9]: enhance the anti-cancer activity of OHBFB

SMILES: COc1ccc([C@@H]2CC(=O)c3c(O)cc(O)cc3O2)cc1O [hesperetin]
cell viability: enhancement of OHBFB anti-cancer activity by flavanone [9]: enhance the anti-cancer activity of OHBFB

SMILES: O=C1C[C@@H](c2ccc(O)cc2)Oc2cc(O)cc(O)c21 [naringenin]
cell viability: enhancement of OHBFB anti-cancer activity by flavanone [9]: enhance the anti-cancer activity of OHBFB

SMILES: CCCc1nc(C)c2c(=O)[nH]c(-c3cc(S(=O)(=O)N4CCN(CC)CC4)ccc3OCC)nn12 [vardenafil]
IC50 [10]: 92.7 µM

Reference: patent US20200230100A1, “AGONIST OF 67 KDA LAMININ RECEPTOR AND UTILIZATION THEREOF” (priority 2017, published 2020)
